Results taken from patent US12528814B2, “Bifunctional degraders of interleukin-1 receptor-associated kinases and therapeutic use thereof” (NURIX THERAPEUTICS, INC., priority 2020, dated 2026).
Entries after “also recorded” stand apart in the source; their conditions may differ.

Experiments:
Format in all cases: cell-based
IRAK4 [1] = biological target: T1, IRAK4 (Homo sapiens (Human), UniProt Q9NWZ3); test: IRAK4 Degradation HTRF Assay; settings: wild-type Jurkat cells, 4 hrs
Description: DMSO was stamped into wells A12-H12 at 400 nL/well (NC, Negative Control, maximum signal). […] Following incubation, plates were centrifuged for 5 min at 1600 rpm. […] Cells were incubated 30 min at room temperature with gentle shaking. 16 μL each lysate was transferred to 96-well detection plate included in Cisbio Total IRAK4 HTRF Assay Kit (cat. no. 63ADK108PEG). To the lysates was added 2 μL each of Total-IRAK4 d2 antibody and Total-IRAK4 Cryptate antibody (Cisbio Total IRAK4 HTRF Assay Kit). Plates were incubated overnight at RT. Fluorescence emission at 665 nm and 620 nm was read using an EnVision plate reader. The HTRF Ratio was calculated per sample using the following equation: HTRF Ratio=(665 nm signal/620 nm signal)×10,000

Aiolos = Aiolos (Homo sapiens (Human), UniProt Q96SW2+Q9UKT9); test: Flow Cytometry-Based Assay for Aiolos Degradation; settings: 24 hours; for DC50: Jurkat cells (Clone E6-1); for Aiolos (CRBN neosubstrate) degradation, in words: Jurkat cells
Sequence of Aiolos (Q9UKT9 whole entry): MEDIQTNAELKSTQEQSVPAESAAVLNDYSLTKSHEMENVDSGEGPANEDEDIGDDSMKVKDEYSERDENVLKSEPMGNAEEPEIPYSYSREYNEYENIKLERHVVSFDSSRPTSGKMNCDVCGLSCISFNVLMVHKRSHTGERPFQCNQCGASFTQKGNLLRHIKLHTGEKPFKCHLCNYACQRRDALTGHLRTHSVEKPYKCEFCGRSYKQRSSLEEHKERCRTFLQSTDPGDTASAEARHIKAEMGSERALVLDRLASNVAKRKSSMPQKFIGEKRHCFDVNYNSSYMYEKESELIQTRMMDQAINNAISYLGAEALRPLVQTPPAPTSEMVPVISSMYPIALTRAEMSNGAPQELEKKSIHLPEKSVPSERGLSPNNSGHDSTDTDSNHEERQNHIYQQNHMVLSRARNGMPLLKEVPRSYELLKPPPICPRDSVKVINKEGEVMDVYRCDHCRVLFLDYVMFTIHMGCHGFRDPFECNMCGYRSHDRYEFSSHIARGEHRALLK
Sequence of Aiolos (Q96SW2 whole entry): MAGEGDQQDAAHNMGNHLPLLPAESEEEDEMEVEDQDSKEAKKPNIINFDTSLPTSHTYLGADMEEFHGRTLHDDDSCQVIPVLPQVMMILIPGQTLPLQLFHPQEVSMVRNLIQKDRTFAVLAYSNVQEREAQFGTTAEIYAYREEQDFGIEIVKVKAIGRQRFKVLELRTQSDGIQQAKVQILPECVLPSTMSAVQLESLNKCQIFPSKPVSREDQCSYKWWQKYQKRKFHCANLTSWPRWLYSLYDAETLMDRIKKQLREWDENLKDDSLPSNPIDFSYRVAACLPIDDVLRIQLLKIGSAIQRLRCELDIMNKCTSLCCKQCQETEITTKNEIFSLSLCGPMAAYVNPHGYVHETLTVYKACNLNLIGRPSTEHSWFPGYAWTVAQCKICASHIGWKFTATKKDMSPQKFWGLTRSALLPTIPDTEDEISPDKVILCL
Sequence of Aiolos (Q16531 whole entry partner): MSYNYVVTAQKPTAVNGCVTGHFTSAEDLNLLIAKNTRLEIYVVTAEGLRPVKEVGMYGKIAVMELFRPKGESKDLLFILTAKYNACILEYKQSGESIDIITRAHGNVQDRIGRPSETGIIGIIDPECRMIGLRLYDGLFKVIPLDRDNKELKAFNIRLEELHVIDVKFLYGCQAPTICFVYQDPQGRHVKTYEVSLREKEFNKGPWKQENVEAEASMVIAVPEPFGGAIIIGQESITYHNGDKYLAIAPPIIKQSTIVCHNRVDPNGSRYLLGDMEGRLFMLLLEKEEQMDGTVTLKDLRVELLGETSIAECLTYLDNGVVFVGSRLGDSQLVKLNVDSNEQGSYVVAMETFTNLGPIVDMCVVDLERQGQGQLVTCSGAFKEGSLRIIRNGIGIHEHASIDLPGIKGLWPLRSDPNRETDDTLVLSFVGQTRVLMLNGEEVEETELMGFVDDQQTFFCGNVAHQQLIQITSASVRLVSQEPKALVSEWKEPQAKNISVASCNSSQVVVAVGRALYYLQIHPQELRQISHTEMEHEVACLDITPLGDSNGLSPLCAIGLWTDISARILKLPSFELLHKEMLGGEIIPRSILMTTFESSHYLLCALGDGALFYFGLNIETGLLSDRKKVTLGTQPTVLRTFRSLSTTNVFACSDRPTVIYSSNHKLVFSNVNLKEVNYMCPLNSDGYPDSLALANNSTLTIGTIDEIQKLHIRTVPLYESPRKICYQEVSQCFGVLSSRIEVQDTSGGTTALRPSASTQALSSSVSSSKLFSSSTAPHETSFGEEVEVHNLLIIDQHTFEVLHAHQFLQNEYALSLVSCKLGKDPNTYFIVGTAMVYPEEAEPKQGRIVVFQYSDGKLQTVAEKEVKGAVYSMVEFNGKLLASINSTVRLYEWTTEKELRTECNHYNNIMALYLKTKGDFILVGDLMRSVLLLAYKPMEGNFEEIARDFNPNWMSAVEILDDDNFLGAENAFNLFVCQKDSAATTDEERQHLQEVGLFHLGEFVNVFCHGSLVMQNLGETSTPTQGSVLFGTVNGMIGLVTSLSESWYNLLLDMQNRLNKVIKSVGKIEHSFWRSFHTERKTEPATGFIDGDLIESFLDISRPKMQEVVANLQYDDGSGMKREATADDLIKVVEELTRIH
Description: (§1) Flow Cytometry-Based Assay for Aiolos and Ikaros Degradation
(§2) Jurkat cells (Clone E6-1) were treated with DMSO or compound for 24 hours and then fixed and permeabilized using a Foxp3/Transcription Factor Fixation/Permeabilization Kit (eBioscience, cat. no. 00-5523). Cells were stained with fluorophore-conjugated antibodies against Ikaros (Biolegend 368414) and Aiolos (Biolegend, cat. no. 371106). An additional set of DMSO-treated cells was stained with fluorophore-conjugated isotype control antibodies (Biolegend, cat. no. 400254 and 400136). Stained cells were run on an Attune N×T Acoustic Focusing Flow Cytometer (Thermo-Fisher, cat. no. A29004), and data was analyzed using FlowJo (v10.5.3) and GraphPad Prism (v7.00) software. Single cells were gated, and the geometric mean fluorescence intensities (MFIs) of Ikaros and Aiolos were calculated. The MFI of the isotype control was calculated for each analyte and used to quantify background staining. Percent Ikaros or Aiolos degradation was calculated for each compound-treated sample using the following equation: % Degradation=[…]

IRAK4 [2] = biological target: T1, IRAK4; test: IRAK4 Degradation Competition/Rescue Assay; settings: degrader 1 μM; 1 hr pre-treatment with Nedd8i (5 μM) or MG-132 (20 or 50 μM); HiBiT Jurkat clone 8D5
Excerpt: IRAK4 Degradation Competition/Rescue Assay

GSPT1 = GSPT1 (Homo sapiens (Human), UniProt P15170+Q96SW2); test: Western Assay for GSPT1 Degradation; settings: wild-type Jurkat cells, 24 hrs
Sequence of GSPT1 (P15170 whole entry): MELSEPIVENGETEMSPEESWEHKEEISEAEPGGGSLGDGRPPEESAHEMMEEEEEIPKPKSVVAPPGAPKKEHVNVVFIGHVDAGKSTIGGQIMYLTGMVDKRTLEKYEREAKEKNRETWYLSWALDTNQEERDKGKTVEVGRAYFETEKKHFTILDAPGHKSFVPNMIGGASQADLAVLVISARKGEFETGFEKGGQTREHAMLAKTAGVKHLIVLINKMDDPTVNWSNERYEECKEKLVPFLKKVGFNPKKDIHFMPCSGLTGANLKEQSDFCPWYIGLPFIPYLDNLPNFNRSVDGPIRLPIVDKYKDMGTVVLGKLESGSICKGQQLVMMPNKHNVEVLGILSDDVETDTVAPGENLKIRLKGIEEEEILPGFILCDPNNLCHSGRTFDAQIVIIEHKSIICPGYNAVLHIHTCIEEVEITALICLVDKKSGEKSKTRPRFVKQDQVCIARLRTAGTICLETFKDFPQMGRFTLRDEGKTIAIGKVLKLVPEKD
Sequence of GSPT1 (Q96SW2 whole entry): as the sequence (Q96SW2 whole entry) above
Sequence of GSPT1 (Q16531 whole entry partner): as the sequence (Q16531 whole entry partner) above
Description: (§3) Biological Example 4 Western Assay for IRAK4, IRAK1 and GSPT1 Degradation
(§4) DMSO was stamped into wells A12-H12 at 500 nL/well (NC, Negative Control, maximum signal). […] Following incubation, plates were centrifuged for 5 min at 1600 rpm. Media was removed and cell pellets were lysed in 50 μL lysis buffer (RIPA buffer (Fisher, PI89901), cOmplete Mini EDTA-free protease inhibitor (Sigma 11836170001), Protease Inhibitor Cocktail (Sigma, P2714), Phosphatase Inhibitor Cocktail 2 and 3 (Sigma, P5726 and P0044), Benzonase (Sigma, E1014)). Cells were lysed overnight at −20° C. Plates were centrifuged for 5 min at 1600 rpm and lysate supernatants were transferred to storage plates. Protein levels were determined by BCA Assay performed according to manufacturer's protocol (EMD Millipore, cat. no. 71285-3). Samples were combined with (4×) LDS Sample Buffer and (10×) Reducing Agent and H2O to equally load 10 ug protein per lane of a 26-well NuPAGE 4-12% Bis-Tris protein gel (1.0 mm, Thermo cat. no. NP0326). Samples were separated by running gels at constant 200 V in NuPAGE MES SDS Running Buffer. Following electrophoresis, proteins were transferred to nitrocellulose membranes using an iBlot Gel Transfer Device and iBlot Gel Transfer Stacks (Thermo cat. no. IB21001 and IB301001) and transfer method PO (20V 1 min, 23V 4 min, 25V 2 min). Membranes were blocked for 1 hr in 5% milk solution (TBS (0.2% Tween-20)).
(§5) Following blocking, membranes were incubated with primary antibody overnight at 4° C. with gentle shaking. The primary antibodies and dilutions used were as follows: IRAK4—abcam ab3200612, 1:500; IRAK1—Cell Signaling Technologies D51G7 #4504, 1:500; GSPT1—Cell Signaling Technologies #14980, 1:500). Blots were washed 3× in TBS (0.2% Tween-20), 5-10 min per wash. Following washes, blots were incubated in secondary HRP-conjugated antibody (Promega anti-Rabbit IgG (H+L) HRP, cat. no. W4011), 1:5000 in 5% milk solution (TBS (0.2% Tween-20)), for 1 hr at room temperature with gentle shaking. Blots were washed 3× in TBS (0.2% Tween-20), 5-10 min per wash. Blots were incubated with 1:1 mix of ECL reagents 1 & 2 (Amersham ECL Western Blotting Detection Reagent, cat. no. RPN2106) for 2-3 min at room temperature. Bands were visualized using a Protein Simple imager. Blots were then re-probed with a combination of anti-actin antibody (Sigma Monoclonal Mouse Anti-3-Actin (clone AC-15), cat. no. A5441) and secondary HRP-conjugated antibody (Promega anti-Mouse IgG (H+L) HRP, cat. no. W4021) and similar steps were taken for incubation, wash, detection and visualization steps as above. The data was analyzed using Alpha View software. The densitometric reading for each sample band was normalized to that of the corresponding actin band per lane.

Ikaros = Ikaros (Homo sapiens (Human), UniProt Q13422+Q96SW2); test: Flow Cytometry-Based Assay for Ikaros Degradation; settings: 24 hours; for DC50: Jurkat cells (Clone E6-1); for Ikaros (CRBN neosubstrate) degradation, in words: Jurkat cells
Sequence of Ikaros (Q13422 whole entry): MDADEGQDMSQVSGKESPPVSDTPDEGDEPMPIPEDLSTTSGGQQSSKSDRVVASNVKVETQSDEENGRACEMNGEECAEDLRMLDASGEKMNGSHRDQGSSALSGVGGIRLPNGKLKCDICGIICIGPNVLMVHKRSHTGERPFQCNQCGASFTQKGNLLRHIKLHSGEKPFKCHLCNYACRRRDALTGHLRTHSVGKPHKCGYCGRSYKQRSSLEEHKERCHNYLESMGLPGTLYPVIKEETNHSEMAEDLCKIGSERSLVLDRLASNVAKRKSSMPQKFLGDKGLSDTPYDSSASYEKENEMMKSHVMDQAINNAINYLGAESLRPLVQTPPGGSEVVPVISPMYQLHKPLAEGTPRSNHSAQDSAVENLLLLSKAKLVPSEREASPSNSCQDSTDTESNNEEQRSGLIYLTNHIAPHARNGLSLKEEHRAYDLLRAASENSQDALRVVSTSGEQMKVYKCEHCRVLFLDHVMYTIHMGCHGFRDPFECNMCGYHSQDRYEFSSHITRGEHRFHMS
Sequence of Ikaros (Q96SW2 whole entry): as the sequence (Q96SW2 whole entry) above
Sequence of Ikaros (Q16531 whole entry partner): as the sequence (Q16531 whole entry partner) above
Description: as §1, §2

Jurkat cells = test: Viability Assay (Celltiter-Glo); settings: Homo sapiens, 4 hrs, read-out: Viability assessment EC50
Description: Viability Assay (Celltiter-Glo)
DMSO was stamped into empty wells at 60 nL/well (NC, Negative Control, maximum signal). […] Following incubation, the CellTiter-Glo assay was performed according to manufacturer's instructions (Promega CellTiter-Glo Luminescent Cell Viability Assay, cat. no. G7570).

IRAK1 = IRAK1 (Homo sapiens (Human), UniProt P51617); test: Western Assay for IRAK1 Degradation; settings: wild-type Jurkat cells, 4 hrs
Sequence of IRAK1 (P51617 whole entry): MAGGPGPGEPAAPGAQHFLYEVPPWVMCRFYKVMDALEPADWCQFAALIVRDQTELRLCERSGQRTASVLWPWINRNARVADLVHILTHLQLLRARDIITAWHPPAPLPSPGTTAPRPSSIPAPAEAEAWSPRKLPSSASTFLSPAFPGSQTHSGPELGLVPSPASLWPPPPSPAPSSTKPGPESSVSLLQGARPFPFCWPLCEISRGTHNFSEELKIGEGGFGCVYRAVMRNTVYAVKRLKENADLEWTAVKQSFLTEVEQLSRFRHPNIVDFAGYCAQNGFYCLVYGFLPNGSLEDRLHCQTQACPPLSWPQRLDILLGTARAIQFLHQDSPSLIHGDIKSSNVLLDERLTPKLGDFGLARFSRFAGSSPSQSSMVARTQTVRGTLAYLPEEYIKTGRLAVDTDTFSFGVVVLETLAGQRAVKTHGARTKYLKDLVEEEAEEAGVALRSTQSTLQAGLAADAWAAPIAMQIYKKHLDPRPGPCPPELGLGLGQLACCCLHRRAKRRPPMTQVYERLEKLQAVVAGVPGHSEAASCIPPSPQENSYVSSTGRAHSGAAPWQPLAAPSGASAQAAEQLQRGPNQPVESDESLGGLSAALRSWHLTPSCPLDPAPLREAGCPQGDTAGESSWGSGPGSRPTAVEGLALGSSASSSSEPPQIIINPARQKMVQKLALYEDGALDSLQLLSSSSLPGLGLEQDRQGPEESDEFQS
Description: as §3, §4, §5

T1 sequence (Q9NWZ3 whole entry): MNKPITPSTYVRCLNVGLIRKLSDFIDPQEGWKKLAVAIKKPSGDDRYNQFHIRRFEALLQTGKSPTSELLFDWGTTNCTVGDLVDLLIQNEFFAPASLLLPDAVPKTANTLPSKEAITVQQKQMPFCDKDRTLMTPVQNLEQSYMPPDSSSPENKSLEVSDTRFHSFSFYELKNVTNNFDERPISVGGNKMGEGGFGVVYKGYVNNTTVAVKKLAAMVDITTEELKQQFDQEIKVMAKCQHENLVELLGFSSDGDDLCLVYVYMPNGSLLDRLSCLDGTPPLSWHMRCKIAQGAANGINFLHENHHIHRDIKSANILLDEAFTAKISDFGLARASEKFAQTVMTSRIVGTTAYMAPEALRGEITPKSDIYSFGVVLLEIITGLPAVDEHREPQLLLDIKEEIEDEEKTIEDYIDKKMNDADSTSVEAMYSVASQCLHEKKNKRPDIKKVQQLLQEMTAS

| SMILES | DC50 (IRAK4 [1]) | Dmax (IRAK4 [1]) | DC50 (Aiolos) | Rescue by proteasome or Nedd8 inhibition (IRAK4 [2]) | DC50 (GSPT1) | DC50 (Ikaros) | EC50 (Jurkat cells) | DC50 (IRAK1) | Aiolos (CRBN neosubstrate) degradation, in words (Aiolos) | Ikaros (CRBN neosubstrate) degradation, in words (Ikaros) | IRAK4 degradation by HTRF, in words (IRAK4 [1]) |
| --- | --- | --- | --- | --- | --- | --- | --- | --- | --- | --- | --- |
| Cc1ncsc1-c1ccc(CNC(=O)[C@@H]2C[C@@H](O)CN2C(=O)[C@@H](NC(=O)C2(F)CC2)C(C)(C)C)c(OCCOCCC(=O)N2CCN(c3nnc(-c4cnc(-c5ccc6cc(C#N)cnn56)cc4NC(C)C)s3)CC2)c1 [Example 47, (2S,4R)—N-(2-(2-(3-(4-(5-(6-(3-cyanopyrrolo[1,2-b]pyridazin-7-yl)-4-(isopropylamino)pyridin-3-yl)-1,3,4-thiadiazol-2-yl)piperazin-1-yl)-3-oxopropoxy)ethoxy)-4-(4-methylthiazol-5-yl)benzyl)-1-((S)-2-(1-fluorocyclopropane-1-carboxamido)-3,3-dimethylbutanoyl)-4-hydroxypyrrolidine-2-carboxamide] | 0.14 µM | > 100% | > 5 µM | YES | > 10 µM | > 5 µM | > 10 µM | > 10 µM | none of Compounds 13, 24, 47, and 35 displayed neosubstrate degradation | none of Compounds 13, 24, 47, and 35 displayed neosubstrate degradation | maximum IRAK4 degradation among the tested compounds |
| Cc1ncsc1-c1ccc(CNC(=O)[C@@H]2C[C@@H](O)CN2C(=O)[C@@H](NC(=O)CCCC(=O)N2CCN(c3nnc(-c4cnc(-c5ccc6cc(C#N)cnn56)cc4NC(C)C)s3)CC2)C(C)(C)C)cc1 [Example 35, (2S,4R)-1-((S)-2-(5-(4-(5-(6-(3-cyanopyrrolo[1,2-b]pyridazin-7-yl)-4-(isopropylamino)pyridin-3-yl)-1,3,4-thiadiazol-2-yl)piperazin-1-yl)-5-oxopentanamido)-3,3-dimethylbutanoyl)-4-hydroxy-N-(4-(4-methylthiazol-5-yl)benzyl)pyrrolidine-2-carboxamide] | 0.4 µM | 100% | > 5 µM | YES | > 10 µM | > 5 µM | > 10 µM | > 10 µM | none of Compounds 13, 24, 47, and 35 displayed neosubstrate degradation | none of Compounds 13, 24, 47, and 35 displayed neosubstrate degradation | – |
| CC(C)Nc1cc(-c2ccc3cc(C#N)cnn23)ncc1-c1nnc(N2CCN(C(=O)C3CCN(CC4CCN(c5ccc(-c6nn(C7CCC(=O)NC7=O)c(=O)n6C)cc5)CC4)CC3)CC2)s1 (centres unmarked) [Example 24, 7-(5-(5-(4-(1-((1-(4-(1-(2,6-dioxopiperidin-3-yl)-4-methyl-5-oxo-4,5-dihydro-1H-1,2,4-triazol-3-yl)phenyl)piperidin-4-yl)methyl)piperidine-4-carbonyl)piperazin-1-yl)-1,3,4-thiadiazol-2-yl)-4-(isopropylamino)pyridin-2-yl)pyrrolo[1,2-b]pyridazine-3-carbonitrile] | 0.42 µM | > 100% | > 5 µM | YES | > 10 µM | > 5 µM | > 10 µM | > 10 µM | none of Compounds 13, 24, 47, and 35 displayed neosubstrate degradation | none of Compounds 13, 24, 47, and 35 displayed neosubstrate degradation | – |
| CC[C@@H]1[C@H](F)C(=O)N[C@@H]1COc1ncc(C#CCN2CCC3(CC2)CCN(c2ncc(C(=O)N[C@H](C(=O)N4C[C@H](O)C[C@H]4C(=O)NCc4ccc(-c5scnc5C)cc4)C(C)(C)C)cn2)CC3)c2cc(C(N)=O)c(OC)cc12 [Comparative b1, reference compound] | 0.08 µM | 100% | > 5 µM | YES | > 10 µM | > 5 µM | > 10 µM | > 10 µM | – | – | – |

Compounds with a lower DC50 (IRAK4 [1]), results first:

| DC50 (IRAK4 [1]) | Dmax (IRAK4 [1]) | DC50 (Aiolos) | Rescue by proteasome or Nedd8 inhibition (IRAK4 [2]) | DC50 (GSPT1) | DC50 (Ikaros) | EC50 (Jurkat cells) | DC50 (IRAK1) | SMILES | Aiolos (CRBN neosubstrate) degradation, in words (Aiolos) | Ikaros (CRBN neosubstrate) degradation, in words (Ikaros) | IRAK4 degradation by HTRF, in words (IRAK4 [1]) |
| --- | --- | --- | --- | --- | --- | --- | --- | --- | --- | --- | --- |
| 0.05 µM | > 100% | > 5 µM | YES | > 10 µM | > 5 µM | > 10 µM | > 10 µM | CC(C)Nc1cc(-c2ccc3cc(C#N)cnn23)ncc1-c1nnc(N2CCN(C(=O)C3CCN(Cc4ccc5c(c4)C(=O)N(C4CCC(=O)NC4=O)C5=O)CC3)CC2)s1 (centres unmarked) [Example 13, 7-(5-(5-(4-(1-((2-(2,6-dioxopiperidin-3-yl)-1,3-dioxoisoindolin-5-yl)methyl)piperidine-4-carbonyl)piperazin-1-yl)-1,3,4-thiadiazol-2-yl)-4-(isopropylamino)pyridin-2-yl)pyrrolo[1,2-b]pyridazine-3-carbonitrile] | none of Compounds 13, 24, 47, and 35 displayed neosubstrate degradation | none of Compounds 13, 24, 47, and 35 displayed neosubstrate degradation | – |
| 0.06 µM | 100% | 0.02 µM | YES | > 10 µM | 0.02 µM | > 10 µM | > 10 µM | NC(=O)c1nn(-c2ccc(C(=O)NCCOCCOCCNc3cccc4c3C(=O)N(C3CCC(=O)NC3=O)C4=O)cc2)cc1NC(=O)c1coc(-c2ccnc(NCC(F)(F)F)c2)n1 (centres unmarked) [Comparative Compound a2, reference compound] | induced neosubstrate degradation; also recorded: degraded both Ikaros and Aiolos | induced neosubstrate degradation; also recorded: degraded both Ikaros and Aiolos | – |
